The text below walks through data of ChEMBL document CHEMBL5550102, “Caged xanthone derivatives to promote mitochondria-mediated apoptosis in breast cancer cells” (Bioorg Med Chem, 2024).

What all share (format): functional, cell-based
The subject of one assay is HepG2. The assay can be described thus: Cytotoxicity against human HepG2 cells incubated for 72 hrs by CCK8 assay. Particulars: HepG2, 72 h.
For the next assay, the system named is A549. The assay can be described thus: Cytotoxicity against human A549 cells incubated for 72 hrs by CCK8 assay. Conditions: A549, 72 h.
Another assay deals with MDA-MB-231. The assay can be described thus: Cytotoxicity against human MDA-MB-231 cells incubated for 72 hrs by CCK8 assay. Conditions: MDA-MB-231, 72 h.

Turning to `COC(=O)C[C@]12C=C3C(=O)c4ccccc4O[C@@]3(CC1)[C@H]1C(=O)N(Cc3ccccc3)C(=O)[C@H]12`, the IC50 in the assay on HepG2, in the assay with A549 and in the assay with MDA-MB-231 was over 50 µM throughout.
On to `COC(=O)C[C@]12C=C3C(=O)c4cc(F)ccc4O[C@@]3(CC1)[C@H]1C(=O)N(c3ccc(C(F)(F)F)cc3)C(=O)[C@H]12`, for which the IC50 in the assay on HepG2, in the assay with A549 and in the assay with MDA-MB-231 was over 50 µM throughout.
`COC(=O)C[C@]12C=C3C(=O)c4ccccc4O[C@@]3(CC1)[C@H]1C(=O)N(c3ccccc3)C(=O)[C@H]12`: the half-inhibitory concentration (IC50) with HepG2 turned out to be 23.6 µM; in the assay with A549, 41.9 µM; with MDA-MB-231 it was 30.5 µM.
Regarding `COC(=O)C[C@]12C=C3C(=O)c4ccccc4O[C@@]3(CC1)[C@H]1C(=O)N(C)C(=O)[C@H]12`, the IC50 turned out to be 16.7 µM in the assay with HepG2, 37.2 µM in the assay with A549 and 37.6 µM in the assay with MDA-MB-231.
For `COC(=O)C[C@]12C=C3C(=O)c4ccccc4O[C@@]3(CC1)[C@H]1C(=O)NC(=O)[C@H]12` the same measures were over 50 µM, over 50 µM and over 50 µM.
In the case of `COC(=O)C[C@]12C=C3C(=O)c4cccc(C)c4O[C@@]3(CC1)[C@H]1C(=O)N(c3ccc(C(F)(F)F)cc3)C(=O)[C@H]12`, the IC50 was found to be 32.9 µM with HepG2, 40.1 µM with A549 and 27 µM in the assay on MDA-MB-231.
In the same order, the values of `COC(=O)C[C@]12C=C3C(=O)c4cc(F)ccc4O[C@@]3(CC1)[C@H]1C(=O)N(c3ccc(Br)cc3)C(=O)[C@H]12` are over 50 µM, over 50 µM and over 50 µM.
